The record followed here is patent US7250397B2, “Antiarrhythmic peptides” (Zealand Pharma A/S, priority 2000, dated 2007).

Data set [1] in a line: In vitro stability test in rabbit plasma (heparin). It is filed as in vitro ADME. Particulars: 37° C., 0.1 mg/ml, mean n=3. The method, then: (§1) The stability of peptides is analysed in different plasma and serum types. The peptides are incubated at 37° C. in plasma and samples taken at approx. 9 regular intervals between t=0 and t=156 min are analysed by HPLC.
(§2) This is done by subsequent injections of the drug, plasma, and a co-injection with the drug and the plasma, followed by optimisation of the LC method parameters until a satisfactory separation is obtained. Three parallel experiments are performed for each plasma type:100 μl of peptide is mixed with 900 μl plasma at t=0 and incubated at 37° C. (drug-plasma mixture conc. 0.1 mg/ml). Samples of 100 μl of the drug-plasma mixture are removed at appropriate intervals and the degradation stopped by precipitation of the sample with 10 μl MeCN:TFA 50:50 v/v. A control plasma sample without the drug treated in the same manner is also taken. The plasma samples are centrifuged for 15 min. at 12,000 rpm (Eppendorf centrifuge) at ambient temperature. The resulting supernatant solution is transferred to 300 μl HP autosamler vials and analyzed by HPLC. […] Temp.: 40° C. • Solvent: MeCN/MQW/TFA (0.1%). Run time: 25 min. • Inj.vol.:15 μL. […]
(§3) The samples are analyzed in the following order: blank, the peptide at 0.1 mg/mL, the plasma without the peptide, the three parallel samples for t=0, the three parallel samples for t=5 min. the three parallel samples for t=10 min. etc. […]

The nature of data set [2]: In vitro stability test in human serum. It is filed as in vitro ADME. Particulars: 37° C., 0.1 mg/ml, mean n=3. The method, then: as §1, §2, §3
The subject of the next data set is human osteoblastic cells. Description: Lucifer Yellow dye transfer in DDT-treated human osteoblast cells. Particulars: DDT 13 μM, 60 minutes; control 14.5 cells. It is filed as cell-based. How it is done:
Human osteoblast cells: Cells were isolated from human bone marrow obtained by puncture of the posterior iliac spine of healthy volunteers (aged 20-36): 10-15 ml marrow material was collected in 15 ml PBS+Ca, Mg (Life Technologies, Cat.No. 14040) with 100 U/ml Heparin (Sigma, Cat.No. H-3149). The mononuclear fraction of the marrow was isolated on a Lymphoprep gradient (Nycomed Pharma, Cat.No. 1001967), by centrifugation at 2200 rpm for 30 min. After harvesting, the mononuclear fraction was washed once with culture medium and centrifuged at 1800 rpm for 10 min. Subsequently cells were counted and plated in culture medium at 8×10^6 cells/100 mm dish. hOB medium (all reagents obtained from Life Technologies): MEM w/o Phenol Red w/Glutamax (Cat.No. 041-93013) supplemented with 10% heat inactivated fetal calf serum (Cat.No. 10106) and 0.1% Penicillin/Streptomycin (Cat.No. 15140). Medium was changed the following day and the cells were cultured at 37° C. in 5%CO2 with medium change every 7 days. After 3-4 weeks of culture the cells had reached 70% confluence. The medium was then supplemented with 100 nM Dexamethasone (Sigma, Cat.No. D-4902) for 7 days. […]
The dye Lucifer Yellow (LY) was injected into one single human osteoblast in a monolayer. After 30 seconds, the number of cells containing dye was assessed. […]

[ ]: non-standard residue; d: D form. Hyp = O=C(O)[C@@H]1C[C@@H](O)CN1

As to H-PYNGAG[Hyp]-NH2 [Compound 27], the T1/2 was determined as 3.8 h in data set [1] and 3.1 h in data set [2]. With `Clc1ccc(C(c2ccc(Cl)cc2)C(Cl)(Cl)Cl)cc1` [DDT, 1,1-bis(p-chlorophenyl)-2,2,2-trichlorethane], the “median number of cells containing dye” value in the data set on human osteoblastic cells worked out at 7 cells.
